From patent US20110129871A1, “CULTURE MEDIUM ENABLING STAPHYLOCOCCUS AUREUS TO BE DIFFERENTIATED FROM COAGULASE-NEGATIVE STAPHYLOCOCCI” (priority 2008, published 2011)

Tests used:
PIPLC = molecular target: T1, PIPLC (Staphylococcus aureus, UniProt P45723); assay: PIPLC activity of Staphylococcus aureus strains in microplates with two fluorogenic PIPLC substrates; type: cell-based; design: key to PIPLC activity: +: strains permitting the production of fluorescence at least twice that of the background noise; −: a signal emitted by the medium that is less than the background noise; conditions: microplate, 24 hours at 37° C.; for number of strains that display PIPLC activity in the presence of the substrate: among the nineteen strains of Staphylococcus aureus ATCC tested; for PIPLC activity: substrate 0.4 g/l (4-methylumbelliferyl) or 0.2 g/l (3-chloro) in medium derived from OAA
T1 construct: endogenous in cells; host or cells: 19 Staphylococcus aureus ATCC strains (e.g. ATCC 9144, ATCC 49775) growing in culture medium
T1 sequence (P45723 27-312): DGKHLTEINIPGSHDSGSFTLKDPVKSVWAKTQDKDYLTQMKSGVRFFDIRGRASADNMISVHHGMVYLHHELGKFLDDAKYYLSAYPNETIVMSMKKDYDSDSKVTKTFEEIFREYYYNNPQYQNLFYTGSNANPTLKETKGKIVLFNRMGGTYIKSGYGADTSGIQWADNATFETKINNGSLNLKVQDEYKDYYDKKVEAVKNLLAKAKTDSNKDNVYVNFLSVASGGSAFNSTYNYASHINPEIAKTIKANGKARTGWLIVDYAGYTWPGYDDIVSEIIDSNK
Procedure: 19 strains of Staphylococcus aureus ATCC are tested for their PIPLC activity in microplates. The tests are performed with two different fluorogenic substrates of PIPLC: 4-methylumbelliferyl-myo-inositol-1-phosphate and 3-chloro-7-hydroxy-4-methylcoumarin myo-inositol-phosphate, added at different concentrations to the constituents of the medium derived from the OAA medium described in example 1.
The strains tested, at an initial concentration of 10^8 (CFU)/ml, are diluted in a tryptone salt broth, so as to obtain a final concentration at 10^3 CFU/ml.
10 μl of this bacterial suspension is added to 200 μl of culture medium. Each strain was incubated for 24 hours at 37° C. with each of the media in the microplate reader marketed by the company TECAN under the name GENios™.
The + signs correspond to the strains permitting the production of fluorescence at least twice that of the background noise, The − signs correspond to a signal emitted by the medium that is less than the background noise.

PC-PLC (lecithinase) = conditions: strains ATCC 33592 and ATCC 700699, 10 CFU per well; 0.4 g/l substrate, pH 7.2, 37° C., 72h, versus uninoculated control medium (FIG. 1)
Procedure: The dynamics of the PC-PLC activity of two strains of Staphylococcus aureus ATCC 33592 and ATCC 700699 was evaluated in microplates in the presence of the medium given below. Reading of the appearance of fluorescence in each of the various wells of the microplate was then carried out in kinetic conditions.
The medium used is of the following composition, pH 7.2:
10 CFU of Staphylococcus aureus ATCC 33592 and ATCC 700699 were inoculated in the wells of the microplate in the presence of the medium described above. The microplate was then incubated at 37° C. in a TECAN reader to evaluate the PC-PLC activity of the two strains of Staphylococcus aureus in the form of the kinetics of hydrolysis of the 4MU-CP substrate, i.e. appearance of fluorescence.
Measurement of the appearance of fluorescence following hydrolysis of the 4MU-CP substrate was carried out over an incubation time of 72h for the two strains of Staphylococcus aureus tested (STA ATCC 33592 and STA ATCC 700699) versus the uninoculated control medium (baseline).

SMILES: Cc1c(Cl)c(=O)oc2cc(OP(=O)([O-])OC3C(O)C(O)C(O)C(O)C3O)ccc12.[Li+] (centres unmarked) [3-Chloro-7-hydroxy-4-methylcoumarin myo-inositol-1-phosphate]
- number of strains that display PIPLC activity in the presence of the substrate (PIPLC): 18
- PIPLC activity (PIPLC; strain ATCC 6538): + (strains permitting the production of fluorescence at least twice that of the background noise)
- PIPLC activity (PIPLC; strain ATCC 9144): + (strains permitting the production of fluorescence at least twice that of the background noise)
- PIPLC activity (PIPLC; strain ATCC 12598): + (strains permitting the production of fluorescence at least twice that of the background noise)
- PIPLC activity (PIPLC; strain ATCC 13150): + (strains permitting the production of fluorescence at least twice that of the background noise)
- PIPLC activity (PIPLC; strain ATCC 29213): + (strains permitting the production of fluorescence at least twice that of the background noise)
- PIPLC activity (PIPLC; strain ATCC 33591): + (strains permitting the production of fluorescence at least twice that of the background noise)
- PIPLC activity (PIPLC; strain ATCC 33592): + (strains permitting the production of fluorescence at least twice that of the background noise)
- PIPLC activity (PIPLC; strain ATCC 33593): + (strains permitting the production of fluorescence at least twice that of the background noise)
- PIPLC activity (PIPLC; strain ATCC 33862): + (strains permitting the production of fluorescence at least twice that of the background noise)
- PIPLC activity (PIPLC; strain ATCC 43300): + (strains permitting the production of fluorescence at least twice that of the background noise)
- PIPLC activity (PIPLC; strain ATCC 43866): + (strains permitting the production of fluorescence at least twice that of the background noise)
- PIPLC activity (PIPLC; strain ATCC 49775): −
- PIPLC activity (PIPLC; strain ATCC 51153): + (strains permitting the production of fluorescence at least twice that of the background noise)
- PIPLC activity (PIPLC; strain ATCC 51740): + (strains permitting the production of fluorescence at least twice that of the background noise)
- PIPLC activity (PIPLC; strain ATCC 700698): + (strains permitting the production of fluorescence at least twice that of the background noise)
- PIPLC activity (PIPLC; strain ATCC 700699): + (strains permitting the production of fluorescence at least twice that of the background noise)
- PIPLC activity (PIPLC; strain ATCC 700788): + (strains permitting the production of fluorescence at least twice that of the background noise)
- PIPLC activity (PIPLC; strain ATCC 700789): + (strains permitting the production of fluorescence at least twice that of the background noise)
- PIPLC activity (PIPLC; strain CCM 6188): + (strains permitting the production of fluorescence at least twice that of the background noise)

SMILES: Cc1cc(=O)oc2cc(OP(=O)([O-])OCC[N+](C)(C)C)ccc12 [4MU-CP, 4-Methylumbelliferyl choline-phosphate]
- detection of Staphylococcus aureus by hydrolysis of the fluorogenic PC-PLC substrate (appearance of fluorescence) (PC-PLC (lecithinase)): permits the detection and discrimination of Staphylococcus aureus

SMILES: Cc1cc(=O)oc2cc(OP(=O)(O)OC3C(O)C(O)C(O)C(O)C3O)ccc12 (centres unmarked) [4-Methylumbelliferyl myo-inositol-1-phosphate]
- number of strains that display PIPLC activity in the presence of the substrate (PIPLC): 17
- PIPLC activity (PIPLC; strain ATCC 6538): + (strains permitting the production of fluorescence at least twice that of the background noise)
- PIPLC activity (PIPLC; strain ATCC 9144): + (strains permitting the production of fluorescence at least twice that of the background noise)
- PIPLC activity (PIPLC; strain ATCC 12598): + (strains permitting the production of fluorescence at least twice that of the background noise)
- PIPLC activity (PIPLC; strain ATCC 13150): + (strains permitting the production of fluorescence at least twice that of the background noise)
- PIPLC activity (PIPLC; strain ATCC 29213): + (strains permitting the production of fluorescence at least twice that of the background noise)
- PIPLC activity (PIPLC; strain ATCC 33591): + (strains permitting the production of fluorescence at least twice that of the background noise)
- PIPLC activity (PIPLC; strain ATCC 33592): + (strains permitting the production of fluorescence at least twice that of the background noise)
- PIPLC activity (PIPLC; strain ATCC 33593): + (strains permitting the production of fluorescence at least twice that of the background noise)
- PIPLC activity (PIPLC; strain ATCC 33862): + (strains permitting the production of fluorescence at least twice that of the background noise)
- PIPLC activity (PIPLC; strain ATCC 43300): + (strains permitting the production of fluorescence at least twice that of the background noise)
- PIPLC activity (PIPLC; strain ATCC 43866): + (strains permitting the production of fluorescence at least twice that of the background noise)
- PIPLC activity (PIPLC; strain ATCC 49775): −
- PIPLC activity (PIPLC; strain ATCC 51153): + (strains permitting the production of fluorescence at least twice that of the background noise)
- PIPLC activity (PIPLC; strain ATCC 51740): + (strains permitting the production of fluorescence at least twice that of the background noise)
- PIPLC activity (PIPLC; strain ATCC 700698): + (strains permitting the production of fluorescence at least twice that of the background noise)
- PIPLC activity (PIPLC; strain ATCC 700699): + (strains permitting the production of fluorescence at least twice that of the background noise)
- PIPLC activity (PIPLC; strain ATCC 700788): + (strains permitting the production of fluorescence at least twice that of the background noise)
- PIPLC activity (PIPLC; strain ATCC 700789): + (strains permitting the production of fluorescence at least twice that of the background noise)
- PIPLC activity (PIPLC; strain CCM 6188): −
